From ChEMBL document CHEMBL1201862, “PubChem BioAssay data set” (2004)
Active and inactive are the calls of the source.

Assays:
[1] = M. tuberculosis H37Rv growth inhibitors, H37Rv strain (AID 1626); assay type: functional
[2] = target: Aryl hydrocarbon receptor (Homo sapiens, UniProt P35869); test: Luminescence-based cell-based high throughput dose response assay for activators of the Aryl Hydrocarbon Receptor (AHR). [Related pubchem assays: 2796 (Primary screen (AHR activators in singlicate)), 2845 (Confirmation screen (AHR activators in triplicate)), 434939 (Counterscreen (PXR activators in triplicate)), 2804 (Summary (AHR activators))]; assay type: ADME
Sequence of Aryl hydrocarbon receptor (P35869 whole entry): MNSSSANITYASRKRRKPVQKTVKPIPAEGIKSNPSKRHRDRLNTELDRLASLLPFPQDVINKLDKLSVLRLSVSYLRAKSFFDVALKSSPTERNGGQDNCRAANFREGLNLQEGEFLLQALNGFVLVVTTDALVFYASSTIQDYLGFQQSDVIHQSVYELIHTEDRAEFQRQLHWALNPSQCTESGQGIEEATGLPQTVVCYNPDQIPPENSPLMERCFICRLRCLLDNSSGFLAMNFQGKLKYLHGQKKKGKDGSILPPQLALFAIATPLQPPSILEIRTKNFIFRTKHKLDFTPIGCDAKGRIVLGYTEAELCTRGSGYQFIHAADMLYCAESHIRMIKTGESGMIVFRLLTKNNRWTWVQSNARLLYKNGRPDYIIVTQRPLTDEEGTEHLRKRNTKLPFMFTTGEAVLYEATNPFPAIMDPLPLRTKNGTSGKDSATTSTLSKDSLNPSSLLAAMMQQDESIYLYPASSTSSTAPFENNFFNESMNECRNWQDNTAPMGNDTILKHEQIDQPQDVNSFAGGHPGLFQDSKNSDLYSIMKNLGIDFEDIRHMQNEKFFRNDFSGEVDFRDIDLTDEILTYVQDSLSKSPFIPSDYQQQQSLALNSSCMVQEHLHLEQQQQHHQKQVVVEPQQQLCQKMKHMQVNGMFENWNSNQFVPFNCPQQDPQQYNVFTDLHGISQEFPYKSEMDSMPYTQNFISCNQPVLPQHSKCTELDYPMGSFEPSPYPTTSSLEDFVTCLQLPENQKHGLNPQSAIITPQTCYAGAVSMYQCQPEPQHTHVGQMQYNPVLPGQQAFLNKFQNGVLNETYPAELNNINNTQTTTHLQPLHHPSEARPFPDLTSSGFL

[3] = Luminescence Cell-Based Dose Response HTS to Identify Activators of Luciferase Translation or Activity in H4 […] Cells. [Related pubchem assays: 1829 (Project Summary), 1814 (Primary HTS)]; assay type: functional
H4 = test: Luminescence Cell-Based Dose Response HTS to Identify Activators of 5'UTR Stem-Loop Driven Prion Protein mRNA Translation in H4 Neuroglioblastoma Cells. [Related pubchem assays: 1829 (Project Summary), 1814 (Primary HTS)]; assay type: functional; details: Homo sapiens
[4] = P. falciparum Dd2 growth inhibitors, dose response, SYBR Green, cherry-picked samples (AID 1159567); assay type: functional, cell-based
[5] = growth inhibition of PfATP4-mutant resistant parasites – NITD609-resistant line, SYBR Green, dry powder, dose response (AID 1159571); assay type: functional, cell-based;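 note: parasites synchronized at ring stage by sorbitol before testing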
[6] = toxicity to human HepG2 hepatoma cells – cell-based, plate reader, dry powder samples, cytotoxicity control, dose response (AID 1159569); assay type: functional;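 note: inhibitor potency with signal falling toward the positive control level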
[7] = growth inhibition of yeast DHODH-expressing 3D7 parasites – SYBR Green, dry powder samples, dose response (AID 1159570); assay type: functional, cell-based;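 note: parasite growth measured after 72 hours of compound exposure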
[8] = toxicity to human hepatoma HepG2 cells – cell-based, cherry-picked samples, cytotoxicity control, dose response (AID 1159577); assay type: functional
[9] = Dd2 malaria parasite growth inhibition potency – SYBR Green, dry powder samples, dose response (AID 1159566); assay type: functional, cell-based;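 note: potency for growth inhibition with lower SYBR green DNA signal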
Cytochrome P450 3A4 = Cytochrome P450 3A4 (Homo sapiens, UniProt P08684); details: Potency;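 note: confirmatory qHTS run detecting inhibitors and substrates of CYP3A4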
Sequence of Cytochrome P450 3A4 (P08684 whole entry): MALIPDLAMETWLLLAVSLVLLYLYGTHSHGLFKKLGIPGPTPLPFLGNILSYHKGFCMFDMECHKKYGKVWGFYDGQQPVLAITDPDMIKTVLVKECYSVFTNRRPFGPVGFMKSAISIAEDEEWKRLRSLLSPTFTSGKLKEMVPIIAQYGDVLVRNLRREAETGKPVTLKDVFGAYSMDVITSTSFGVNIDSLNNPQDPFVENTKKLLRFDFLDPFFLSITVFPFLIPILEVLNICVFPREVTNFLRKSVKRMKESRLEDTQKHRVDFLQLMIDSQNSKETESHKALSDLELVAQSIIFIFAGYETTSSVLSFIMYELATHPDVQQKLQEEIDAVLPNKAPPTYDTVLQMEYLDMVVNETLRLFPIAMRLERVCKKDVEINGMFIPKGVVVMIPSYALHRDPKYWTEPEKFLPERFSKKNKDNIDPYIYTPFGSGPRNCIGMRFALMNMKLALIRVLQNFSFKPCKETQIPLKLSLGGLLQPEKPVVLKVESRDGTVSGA

Cytochrome P450 2C19 = Cytochrome P450 2C19 (Homo sapiens, UniProt P33261); test: qHTS Assay for Inhibitors and Substrates of Cytochrome P450 2C19. [Related pubchem assays: 410 ]; assay type: ADME; details: read-out: Potency
Sequence of Cytochrome P450 2C19 (P33261 whole entry): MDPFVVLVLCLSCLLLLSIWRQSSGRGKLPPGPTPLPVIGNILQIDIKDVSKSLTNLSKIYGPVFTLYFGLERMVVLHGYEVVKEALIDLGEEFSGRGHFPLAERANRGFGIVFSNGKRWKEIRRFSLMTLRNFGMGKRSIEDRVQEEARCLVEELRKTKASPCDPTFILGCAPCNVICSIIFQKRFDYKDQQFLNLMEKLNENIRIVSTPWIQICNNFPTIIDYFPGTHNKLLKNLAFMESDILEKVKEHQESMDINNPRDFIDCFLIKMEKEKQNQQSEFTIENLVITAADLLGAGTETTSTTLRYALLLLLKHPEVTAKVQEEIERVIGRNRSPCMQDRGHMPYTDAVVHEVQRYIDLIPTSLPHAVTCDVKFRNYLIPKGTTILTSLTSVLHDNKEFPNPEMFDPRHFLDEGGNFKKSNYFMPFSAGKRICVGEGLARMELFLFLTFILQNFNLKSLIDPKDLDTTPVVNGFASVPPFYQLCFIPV

Aminopeptidase N = target: T1, Aminopeptidase N (Plasmodium falciparum FcB1/Columbia, UniProt O96935); test: malaria alanyl aminopeptidase activity blockers – biochemical, fluorogenic H-Leu-NHMec substrate, 1536-well (AID 1445); design: species or system Plasmodium falciparum 3D7, 3D7
T1 sequence (O96935 whole entry): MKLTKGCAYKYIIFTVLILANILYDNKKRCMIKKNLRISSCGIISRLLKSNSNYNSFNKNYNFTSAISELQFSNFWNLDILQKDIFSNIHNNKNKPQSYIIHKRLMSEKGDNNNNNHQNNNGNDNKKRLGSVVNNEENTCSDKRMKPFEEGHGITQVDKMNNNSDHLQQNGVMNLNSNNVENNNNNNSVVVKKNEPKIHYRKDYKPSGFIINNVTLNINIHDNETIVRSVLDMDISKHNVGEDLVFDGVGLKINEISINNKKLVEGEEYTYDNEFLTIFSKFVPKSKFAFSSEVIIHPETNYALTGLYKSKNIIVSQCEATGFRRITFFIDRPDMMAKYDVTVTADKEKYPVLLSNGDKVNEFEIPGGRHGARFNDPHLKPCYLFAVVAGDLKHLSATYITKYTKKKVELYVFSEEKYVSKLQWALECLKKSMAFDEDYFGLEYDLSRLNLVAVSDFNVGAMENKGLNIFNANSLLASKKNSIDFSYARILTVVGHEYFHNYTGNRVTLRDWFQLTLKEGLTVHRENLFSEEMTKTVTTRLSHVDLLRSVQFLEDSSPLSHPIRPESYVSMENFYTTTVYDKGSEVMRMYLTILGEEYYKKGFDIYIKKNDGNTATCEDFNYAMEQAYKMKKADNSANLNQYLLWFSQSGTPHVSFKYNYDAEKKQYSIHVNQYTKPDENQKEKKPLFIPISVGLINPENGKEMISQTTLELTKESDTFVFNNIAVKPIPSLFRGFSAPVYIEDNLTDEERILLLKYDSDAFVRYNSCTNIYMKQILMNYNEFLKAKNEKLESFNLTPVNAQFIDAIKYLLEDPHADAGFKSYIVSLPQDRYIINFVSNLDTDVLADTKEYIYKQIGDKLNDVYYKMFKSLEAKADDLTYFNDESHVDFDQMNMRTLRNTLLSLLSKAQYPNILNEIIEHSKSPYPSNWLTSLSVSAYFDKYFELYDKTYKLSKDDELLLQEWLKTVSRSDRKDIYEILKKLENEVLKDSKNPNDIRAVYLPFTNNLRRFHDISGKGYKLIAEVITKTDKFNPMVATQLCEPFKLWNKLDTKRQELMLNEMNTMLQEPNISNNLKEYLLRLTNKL

Leucine aminopeptidase = target: T2, Leucine aminopeptidase (Plasmodium falciparum 3D7, UniProt Q8IL11); test: P. falciparum M17LAP inhibitors, primary screen, biochemical, fluorogenic H-Leu-NHMec substrate, 1536-well (AID 1619); assay type: functional
T2 sequence (Q8IL11 whole entry): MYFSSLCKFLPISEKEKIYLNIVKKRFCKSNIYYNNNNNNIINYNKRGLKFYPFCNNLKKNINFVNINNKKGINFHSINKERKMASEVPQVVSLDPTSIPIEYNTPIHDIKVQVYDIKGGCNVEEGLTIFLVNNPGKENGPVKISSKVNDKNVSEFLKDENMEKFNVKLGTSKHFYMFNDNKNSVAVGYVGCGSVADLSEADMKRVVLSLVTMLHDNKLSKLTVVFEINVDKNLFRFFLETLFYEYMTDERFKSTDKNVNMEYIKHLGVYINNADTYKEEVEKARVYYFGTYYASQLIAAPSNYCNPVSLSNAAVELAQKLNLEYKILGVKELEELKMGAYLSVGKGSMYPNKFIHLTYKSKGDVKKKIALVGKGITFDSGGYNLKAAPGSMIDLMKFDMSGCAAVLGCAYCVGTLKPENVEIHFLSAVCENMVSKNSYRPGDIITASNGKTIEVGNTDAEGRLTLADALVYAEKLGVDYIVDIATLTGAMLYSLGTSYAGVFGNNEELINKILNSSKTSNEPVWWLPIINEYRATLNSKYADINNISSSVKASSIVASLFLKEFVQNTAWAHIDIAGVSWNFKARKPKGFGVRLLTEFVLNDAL

[10] = antiviral protection against BTV-induced cell death – arbovirus, BSR cells, confirmation (AID 1250); assay type: functional;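 note: protection from viral cytopathic effect measured as cell viability by ATP luminescence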
[11] = target: Lytic switch protein BZLF1 (Epstein-Barr virus (strain B95-8) (HHV-4) (Human herpesvirus 4), UniProt P03206); test: inhibition of BZLF1 ZTA DNA binding – biochemical, fluorescence polarization, Epstein-Barr virus, 1536-well, counter-screen for EBNA-1 inhibitor project, dose response (AID 2377); design: species or system human gammaherpesvirus 4;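 note: fluorescence polarization of Cy5-labelled ZRE DNA probe bound by purified Zta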
Sequence of Lytic switch protein BZLF1 (P03206 whole entry): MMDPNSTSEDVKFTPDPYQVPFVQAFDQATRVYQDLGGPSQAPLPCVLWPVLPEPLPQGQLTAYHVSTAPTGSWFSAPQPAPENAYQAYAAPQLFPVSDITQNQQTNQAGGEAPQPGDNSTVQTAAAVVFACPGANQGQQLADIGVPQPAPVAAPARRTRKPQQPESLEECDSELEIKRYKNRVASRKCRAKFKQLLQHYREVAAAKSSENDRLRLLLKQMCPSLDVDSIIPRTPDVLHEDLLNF

[12] = target: Epstein-Barr nuclear antigen 1 (Epstein-Barr virus (strain B95-8) (HHV-4) (Human herpesvirus 4), UniProt P03211); test: inhibition of EBV nuclear antigen 1 DNA binding – biochemical, fluorescence polarization, 1536-well, dose response (AID 2381); design: species or system human gammaherpesvirus 4;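 note: fluorescence polarization of a Cy5 DNA probe bound by EBNA-1 protein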
Sequence of Epstein-Barr nuclear antigen 1 (P03211 whole entry): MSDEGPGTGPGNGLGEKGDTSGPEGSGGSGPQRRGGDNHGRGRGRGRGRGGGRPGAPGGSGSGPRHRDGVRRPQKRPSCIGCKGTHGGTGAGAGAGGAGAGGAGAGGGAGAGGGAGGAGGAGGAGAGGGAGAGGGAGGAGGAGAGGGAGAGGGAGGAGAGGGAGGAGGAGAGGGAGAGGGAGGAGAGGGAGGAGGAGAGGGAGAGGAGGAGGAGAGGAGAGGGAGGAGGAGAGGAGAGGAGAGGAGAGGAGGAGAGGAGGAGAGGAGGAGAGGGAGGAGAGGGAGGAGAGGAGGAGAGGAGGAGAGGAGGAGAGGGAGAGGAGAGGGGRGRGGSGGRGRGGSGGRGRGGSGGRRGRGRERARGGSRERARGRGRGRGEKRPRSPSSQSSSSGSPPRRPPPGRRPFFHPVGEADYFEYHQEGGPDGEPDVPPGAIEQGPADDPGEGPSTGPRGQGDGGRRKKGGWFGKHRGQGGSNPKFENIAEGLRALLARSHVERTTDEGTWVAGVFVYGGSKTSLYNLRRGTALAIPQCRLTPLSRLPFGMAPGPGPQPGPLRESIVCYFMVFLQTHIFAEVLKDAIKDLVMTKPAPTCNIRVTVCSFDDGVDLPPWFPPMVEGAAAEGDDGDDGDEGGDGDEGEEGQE

Protein Tat = target: T3, Protein Tat (Human immunodeficiency virus type 1 group M subtype B (isolate HXB2)(HIV-1), UniProt P04608); assay type: functional;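 note: tat binding to TAR RNA read out by fluorescence polarization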
T3 sequence (P04608 whole entry): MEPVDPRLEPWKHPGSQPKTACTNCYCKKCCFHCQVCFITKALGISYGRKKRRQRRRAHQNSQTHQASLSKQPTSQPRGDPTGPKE

[13] = viability loss in THP-1 monocytes – THP-1 cells, cytotoxicity control for Vif-APOBEC3G degradation inhibitor project, dose response (AID 1117359); assay type: functional; details: THP-1

## O=C(Nc1ccccc1Cl)Oc1ccc2ccccc2c1
[1]
  IC50: > 100 µM (active)

## O=C(NC1CCCC1)c1cc2c(ccc3ccccc32)o1
[2]
  EC50: 2.8 µM (active)
[3]
  EC50: 1.94 µM (active)
H4
  EC50: 24.1 µM (active)

## COc1cccc(-c2ccc3c(c2)[C@@H]2[C@@H](CCN2C(=O)C2CCCC2)[C@@H](CO)N3)c1
[4]
  AC50: 2.25 µM (active)
[5]
  AC50: 1.65 µM (active)
[6]
  AC50: 32.9 µM (active)
[7]
  AC50: 2.57 µM (active)
[8]
  AC50: > 39 µM (inactive)
[9]
  AC50: 2.12 µM (active)

## CCC/C=C/C1C(=O)C2OC2C2(OCC(CC)(CC)CO2)C1CO (stereo unspecified)
Cytochrome P450 3A4
  AC50: 3.98 µM (inconclusive)
Cytochrome P450 2C19
  AC50: 0.004 µM (inconclusive)

## CC(C)S(=O)(=O)C1=NSC2=NC(=O)/C(=C\c3ccc(-c4ccccc4)o3)C(=N)N21
Aminopeptidase N
  IC50: 45.6 µM (active)
Leucine aminopeptidase
  IC50: 12.6 µM (active)
[10]
  IC50: 27.1 µM (active)

## COc1ccc(-n2c(SCC(=O)NCC3CCCO3)nc3c4ccccc4nc-3c2O)cc1 (stereo unspecified)
[11]
  IC50: > 111 µM (not active)
[12]
  IC50: 9.89 µM (active)

## COc1ccc(Cn2cccc(NC(=O)Nc3cccc(C#N)c3)c2=O)cc1
[11]
  IC50: > 111 µM (not active)
[12]
  IC50: 9.07 µM (active)

## Cc1nc2cc(NN=C3C(=O)CCCC3=O)ccc2s1
Protein Tat
  IC50: > 50 µM (active)
[13]
  CC50: > 40 µM (active)
